Earlier results in patent publication US20030157104A1, “Treatment of refractory human tumors with epidermal growth factor receptor antagonists” (priority 1999, published 2003).

Test system: FGFR
Conditions: Panek et al.

inhibition of FGFR family of receptors: inhibits
SMILES: CCN(CC)CCOc1ccc(Nc2ncc3cc(-c4c(Cl)cccc4Cl)c(=O)n(C)c3n2)cc1 [PD166285, 6-(2,6-dichlorophenyl)-2-(4-(2-diethylaminoethoxy)phenylamino)-8-methyl-8H-pyrido(2,3-d)pyrimidin-7-one]
